Our source for the safening and Percentage toxicity values is patent US20110269626A1, “HERBICIDAL COMPOSITIONS COMPRISING HPPD-INHIBITORS AND METHODS OF CONTROLLING WEEDS IN TURFGRASSES” (priority 2008, published 2011).

Format in all cases: in vivo
One series has as its system warm season turfgrasses. Kind of series: Safening of liquid mesotrione formulation on warm season turfgrasses (conclusion from Tables 1 and 2). As to conditions: safener applied in combination with a liquid formulation of mesotrione to warm season turfgrasses. The text has this:
(§1) A liquid formulation of mesotrione (Callisto®) was applied to bermudagrass (Cynodon dactylon×C. dactylon) and zoysia grass (Zoysia matrella) by spray application, with and without safeners, at various rates as show in the table below. Assessments were made at 7, 14 and 21 days after application, to determine percentage growth inhibition, an percentage toxicity (chlorosis and/or burning).

The subject of series [1] is bermudagrass (Cynodon dactylon×C. dactylon). Kind of series: Spray application of liquid mesotrione formulation (Callisto) with and without safeners to bermudagrass; percentage toxicity (chlorosis and/or burning).
Description: as §1

Series [2] deals with zoysia grass (Zoysia matrella). Kind of series: Spray application of liquid mesotrione formulation (Callisto) with and without safeners to zoysia grass; percentage toxicity (chlorosis and/or burning).
Description: as §1

The mark [3] stands for this setting: herbicide 140 g ai/ha, safener 70 g ai/ha or none, 7 DAA.
Where [4] appears, read: herbicide 140 g ai/ha, safener 70 g ai/ha or none, 14 DAA.
Setting [5] is: herbicide 140 g ai/ha, safener 70 g ai/ha or none, 21 DAA.
Where [6] appears, read: herbicide 280 g ai/ha, safener 140 g ai/ha or none, 7 DAA.
[7] abbreviates: herbicide 280 g ai/ha, safener 140 g ai/ha or none, 14 DAA.
Setting [8] is: herbicide 280 g ai/ha, safener 140 g ai/ha or none, 21 DAA.

Molecules are shown by their SMILES.

For the compound `CNC(=O)Nc1ccc(S(=O)(=O)NC(=O)c2ccccc2OC)cc1` [Formula IV], the safening entry with warm season turfgrasses is “Particularly good safening”.
Consider `CS(=O)(=O)c1ccc(C(=O)C2C(=O)CCCC2=O)c([N+](=O)[O-])c1` [Mesotrione, 2-(2′-nitro-4′-methylsulphonylbenzoyl)-1,3-cyclohexanedione], for which the Percentage toxicity in series [1] (setting [3]) was 30%; in series [1] (setting [4]), 10%; in series [1] (setting [5]), 20%; in series [1] (setting [6]), 60%; in series [1] (setting [7]), 50%; in series [1] (setting [8]), 50%. In addition, the Percentage toxicity in series [2] (setting [3]) was 10%; in series [2] (setting [4]) it was 40%; in series [2] (setting [5]), 50%; in series [2] (setting [6]), 15%; in series [2] (setting [7]), 50%; in series [2] (setting [8]) it was 70%.
